Measured values from patent US20020006436A1, “USE OF A LIQUID CRYSTALLINE PHASE FOR DETERMINING THE DISTRIBUTION OF A CHEMICAL SUBSTANCE BETWEEN A HYDROPHOBIC AND A HYDROPHILIC ENVIRONMENT” (priority 1996, published 2002).
Like-named read-outs stand apart in the source and are kept apart here.

Assays:
[1] = Distribution of clomethiazole between glyceryl monooleate cubic phase bilayer and water phase (water or citrate buffer); format: physicochemical; settings: 120 h; for Kbl/w, eq. (4) / kbl/w, eq. (4): fw=0.4
Experimental: The distribution of a substance X between lipids and water in the system is depicted by the following distribution coefficient.
Kbilayer/water=Kbl/w=[X]lipid/[X]water (1),
If both the water phase and the cubic phase are analyzed with reference to their content of the substance X the following distribution coefficient can be determined Kcubic phase/water=KQ/w=[X]Q/[X]w (3), in which [X]Q is the concentration of X in the cubic phase. A relationship between Kbl/w and KQ/w can be derived if the volumetric portion of water in the cubic phase as well as the concentration of X in the water domain of the cubic phase are known. The former can be determined by means of X-ray diffraction. If it is assumed that the concentration of X in the water domain in the cubic phase is [X]w, i.e. the same as in the water phase, the following relationship can be obtained […]
Kbl/w={KQ/w−fw}/{1−fw} (4) in which fw is a volumetric portion of water in the cubic phase.
Clomethiazole (CMZ) is a drug which at a low pH exists in a charged state and at a high pH in a neutral stage. Glyceryl monooleate (Grindsted/Danisco A/S, Brabrand, Denmark), 0.74 ml, was added to each of six vials. Then 0.3 ml water was added to three of the vials, and 0.3 ml citrate buffer, pH 3.4, was added to the remaining three vials. The cubic phase was allowed to be formed overnight. Then 1.0 ml of solutions with different concentrations of CMZ were added to each of the vials.
The contents were analyzed after 120 h with reference to CMZ in the water phase as well as the cubic phase. In this example the constants were vlipid=0.74 ml, v1=0.3 ml, v2=1.0 ml, and fw=0.4. The distribution coefficients Kbl/w were calculated by means of the equations (2) and (4).

[2] = Distribution of lidocaine, cubic phase/water, water solution added after the cubic phase has been formed; format: physicochemical; settings: for [X]w: cubic phase formed 24 h at 37° C., then further 24 h
[3] = Distribution of lidocaine, cubic phase/water, simultaneous addition of all the water solution; format: physicochemical; settings: for [X]w: 24 h; for [X]w / Kbl/w: simultaneous addition
Experimental: wherein [X]lipid/[X]water is the concentration of a substance X in the lipid and the water portion of the system, respectively. In order to be able to determine Kbl/w several methods can be applied. […] Kbl/w ={[…] which [X]w is the concentration of X in the water phase at equilibrium. […] Then 0.5 ml of the respective buffer solution was added to the vials.

[4] = for [X]w: 72 h; for Kbl/w: equation 2, 72 h
Source text: wherein [X]lipid/[X]water is the concentration of a substance X in the lipid and the water portion of the system, respectively. In order to be able to determine Kbl/w several methods can be applied. If vlipid is the lipid volume, v1 is the volume of water solution without the substance X, and v2 is the volume of water solution with the substance X in a concentration of [X]0 mol/liter, the distribution coefficient can be expressed as
Kbl/w ={v2([X]0−[X]w)/[X]w−v1}/vlipid (2),
in which [X]w is the concentration of X in the water phase at equilibrium. Equation 2 can be used if only the water phase and not the lipid phase is analyzed with reference to its content of X.
Glyceryl monooleate, 2 ml, was weighed into three vials, 6 ml of a water solution with 0.033, 0.067, or 0.10 mol NaCl per liter then being added to one of the three vials.
After 72 h the NaCl contents in the three vials were determined by means of conductometrical analysis of the water phases. In this example the constants were vlipid=2 ml, v1=0 ml, and v2=6 ml. The distribution coefficient Kbl/w was calculated by means of equation 2.

[5] = citrate buffer pH 3.4, system I, [X]0 0.28 mg/ml
[6] = citrate buffer pH 3.4, system II, [X]0 1.5 mg/ml
[7] = citrate buffer pH 3.4, system III, [X]0 3.0 mg/ml
[8] = water, system I, [X]0 0.28 mg/ml
[9] = water, system II, [X]0 1.5 mg/ml
[10] = water, system III, [X]0 3.0 mg/ml

For Cc1ncsc1CCCl [Clomethiazole], the “Kbl/w, eq. (2)” value [1, 5] was 28.4, the “[X]w, concentration in the water phase at equilibrium” value (shortened to “[X]w, concentration”) [1, 5] was 0.014 mg/mL and the “citrate, [X]Q, concentration in the cubic phase” value (“citrate, [X]Q, concentration” below) [1, 5] was 0.243 mg/mL. For the same compound, the “Kbl/w, eq. (4)” value [1, 5] was 28.2, the “Kbl/w, eq. (2)” value [1, 6] was 32.0 and the “[X]w, concentration” value [1, 6] was 0.067 mg/mL. For the same compound, the “citrate, [X]Q, concentration” value [1, 6] was 1.188 mg/mL, the “Kbl/w, eq. (4)” value [1, 6] was 28.9 and the “Kbl/w, eq. (2)” value [1, 7] was 31.5. The “[X]w, concentration” value [1, 7] was 0.136 mg/mL, the “citrate, [X]Q, concentration” value [1, 7] was 2.366 mg/mL and the “Kbl/w, eq. (4)” value [1, 7] was 28.3. The “Kbl/w, eq. (2)” value [1, 8] was 57.0, the “[X]Q, concentration in the cubic phase” value [1, 8] was 0.243 mg/mL and the “[X]w, concentration” value [1, 8] was 0.0072 mg/mL. The “kbl/w, eq. (4)” value [1, 8] was 55.6, the “Kbl/w, eq. (2)” value [1, 9] was 57.9 and the “[X]Q, concentration in the cubic phase” value [1, 9] was 1.286 mg/mL. For the same compound, the “[X]w, concentration” value [1, 9] was 0.038 mg/mL, the “kbl/w, eq. (4)” value [1, 9] was 55.7 and the “Kbl/w, eq. (2)” value [1, 10] was 57.9. For the same compound, the “[X]Q, concentration in the cubic phase” value [1, 10] was 2.463 mg/mL, the “[X]w, concentration” value [1, 10] was 0.076 mg/mL and the “kbl/w, eq. (4)” value [1, 10] was 53.3.
For CCN(CC)CC(=O)Nc1c(C)cccc1C [Lidocaine], the “[X]w” value ([2]; pH 4, [X]0 1.00 mg/ml) was 0.66 mg/mL, the Kbl/w ([2]; pH 4, equation 2, solution added after cubic phase formed) was 0.8 and the “[X]w” value ([2]; pH 7, [X]0 1.00 mg/ml) was 0.22 mg/mL. The Kbl/w ([2]; pH 7, equation 2, solution added after cubic phase formed) was 8.4, the “[X]w” value ([2]; pH 10, [X]0 1.00 mg/ml) was 0.073 mg/mL and the Kbl/w ([2]; pH 10, equation 2, solution added after cubic phase formed) was 31.2. The “Kbl/w(charged)” value ([3]; charged form, from pH 4) was 0.7, the “[X]w” value ([3]; pH 4, [X]0 1.00 mg/ml) was 0.68 mg/mL and the Kbl/w ([3]; pH 4, equation 2, 24 h) was 0.7. For the same compound, the “[X]w” value ([3]; pH 7, [X]0 1.00 mg/ml) was 0.21 mg/mL, the Kbl/w ([3]; pH 7, equation 2, 24 h) was 8.9 and the “[X]w” value ([3]; pH 10, [X]0 1.00 mg/ml) was 0.073 mg/mL. For the same compound, the Kbl/w ([3]; pH 10, equation 2, 24 h) was 31.2 and the “Kbl/w(uncharged)” value ([3]; uncharged form, from pH 10) was 31.2.
With [Cl-].[Na+] [NaCl] the “[X]w” value ([4]; [X]0 0.033 mol/liter) was 0.036 mol/L, the Kbl/w ([4]; [X]0 0.033 mol/liter) was −0.25 and the “[X]w” value ([4]; [X]0 0.067 mol/liter) was 0.071 mol/L. For the same compound, the Kbl/w ([4]; [X]0 0.067 mol/liter) was −0.17, the “[X]w” value ([4]; [X]0 0.100 mol/liter) was 0.106 mol/L and the Kbl/w ([4]; [X]0 0.100 mol/liter) was −0.17.
